This note sets out measurements from the supplement of paper PMC10307832.

What all share (test): relative viability (nuclei count vs DMSO), 5 days (fraction); higher = more cells survive
Compound in the assay “Halofuginone + OSI-027”: O=C(C[C@H]1NCCC[C@@H]1O)Cn1cnc2cc(Br)c(Cl)cc2c1=O (racemic) [Halofuginone] + COc1cccc2cc(-c3nc([C@H]4CC[C@H](C(=O)O)CC4)n4ncnc(N)c34)[nH]c12 [OSI-027] (partner 0.5 µM)
The method in brief: (§1)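 Lung cancer cell lines were pin-tool dosed in 1536-well plates on the day after seeding, with either a lone drug or a fixed anchor-drug dose plus five library-drug doses (not always all listed) in √10 steps. Nuclei were counted on 4× images after 5 days. Relative viability is the ratio of treated-well to vehicle-well nuclei counts, with each value a median of duplicate plates.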

Compound in assay [1]: O=C(C[C@H]1NCCC[C@@H]1O)Cn1cnc2cc(Br)c(Cl)cc2c1=O (racemic) [Halofuginone] + Nc1nc2[nH]cc(CCc3ccc(C(=O)N[C@@H](CCC(=O)O)C(=O)O)cc3)c2c(=O)[nH]1 [Pemetrexed] (partner 0.2 µM)
The method in brief: as §1

Compound in assay [2]: O=C(C[C@H]1NCCC[C@@H]1O)Cn1cnc2cc(Br)c(Cl)cc2c1=O (racemic) [Halofuginone] + N=C(N)NC(=N)NCCc1ccccc1 [Phenformin] (partner 250 µM)
The method in brief:
as §1

Compound in the assay “Cediranib + Alpelisib”: COc1cc2c(Oc3ccc4[nH]c(C)cc4c3F)ncnc2cc1OCCCN1CCCC1 [Cediranib] + Cc1nc(NC(=O)N2CCC[C@H]2C(N)=O)sc1-c1ccnc(C(C)(C)C(F)(F)F)c1 [Alpelisib] (partner 2 µM)
The method in brief: as §1

For the cell line UMC-11, the relative viability with Halofuginone + OSI-027 (first compound 0.001 µM) is 0.44; in the assay with Halofuginone + OSI-027 (first compound 0.003162 µM), 0.461; with Halofuginone + OSI-027 (first compound 0.01 µM), 0.467; in the assay with Halofuginone + OSI-027 (first compound 0.03162 µM) it was 0.46; in the assay with Halofuginone + OSI-027 (first compound 0.1 µM), 0.368; in assay [1] (first compound 0.001 µM), 0.881. The relative viability was 0.834 in assay [1] (first compound 0.003162 µM); 0.727 in assay [1] (first compound 0.01 µM); 0.651 in assay [1] (first compound 0.03162 µM); 0.443 in assay [1] (first compound 0.1 µM); 0.345 in assay [2] (first compound 0.001 µM); 0.343 in assay [2] (first compound 0.003162 µM). The relative viability in assay [2] (first compound 0.01 µM) was 0.324; in assay [2] (first compound 0.03162 µM), 0.316; in assay [2] (first compound 0.1 µM), 0.267; with Cediranib + Alpelisib (first compound 0.04 µM), 1.06; with Cediranib + Alpelisib (first compound 0.1265 µM), 0.879; with Cediranib + Alpelisib (first compound 0.4 µM), 0.934. Besides, the values for the relative viability in the assay with Cediranib + Alpelisib (first compound 1.265 µM) and in the assay with Cediranib + Alpelisib (first compound 4 µM) were 0.984 and 0.922, respectively.
